Source: US20140018347A1, “BENZOXAZEPINES AS INHIBITORS OF mTOR AND METHODS OF THEIR USE AND MANUFACTURE” (Exelixis, Inc., priority 2010, published 2014)

What was measured:
mTORC1 = mTORC1 (Homo sapiens, UniProt P42345); test: mTOR/GbL/Raptor (mTORC1) ELISA Assay; format: biochemical; settings: phosphorylation of 4E-BP1; 0.2 nM mTORC1, 10 μM ATP
Protocol: The measurement of mTORC1 enzyme activity was performed in an ELISA assay format following the phosphorylation of 4E-BP1 protein. All experiments were performed in the 384-well format. Generally, 0.5 μL DMSO containing varying concentrations of the test compound was mixed with 15 μL enzyme solution. Kinase reactions were initiated with the addition of 15 μL of substrates-containing solution. The assay conditions were as follows; 0.2 nM mTORC1, 10 μM ATP and 50 nM NHis-tagged 4E-BP1 in 20 mM Hepes, pH 7.2, 1 mM DTT, 50 mM NaCl, 10 mM MnCl2, 0.02 mg/mL BSA, 0.01% CHAPS, 50 mM β-glycerophosphate. Following an incubation of 120 minutes at ambient temperature, 20 μL of the reaction volume was transferred to a Ni-Chelate-coated 384-well plate. The binding step of the 4E-BP1 protein proceeded for 60 minutes, followed by washing 4 times each with 50 μL of Tris-buffered saline solution (TBS). Anti-phospho-4E-BP1 rabbit-IgG (20 μL, 1:5000) in 5% BSA-TBST (0.2% Tween-20 in TBS) was added and further incubated for 60 minutes. Incubation with a secondary HRP-tagged anti-IgG was similarly performed after washing off the primary antibody (4 washes of 50 μL). Following the final wash step with TBST, 20 μL of SuperSignal ELISA Femto (Pierce Biotechnology) was added and the luminescence measured using an EnVision plate reader.

PI3Kalpha = PI3Kalpha (Homo sapiens, UniProt P42336); test: PI3K Biochemical Assays (PI3K-alpha assay); settings: ATP consumption, luciferase-luciferin; 1 μM ATP, 10 μM PIP2
PI3Kalpha, sequence (P42336 whole entry): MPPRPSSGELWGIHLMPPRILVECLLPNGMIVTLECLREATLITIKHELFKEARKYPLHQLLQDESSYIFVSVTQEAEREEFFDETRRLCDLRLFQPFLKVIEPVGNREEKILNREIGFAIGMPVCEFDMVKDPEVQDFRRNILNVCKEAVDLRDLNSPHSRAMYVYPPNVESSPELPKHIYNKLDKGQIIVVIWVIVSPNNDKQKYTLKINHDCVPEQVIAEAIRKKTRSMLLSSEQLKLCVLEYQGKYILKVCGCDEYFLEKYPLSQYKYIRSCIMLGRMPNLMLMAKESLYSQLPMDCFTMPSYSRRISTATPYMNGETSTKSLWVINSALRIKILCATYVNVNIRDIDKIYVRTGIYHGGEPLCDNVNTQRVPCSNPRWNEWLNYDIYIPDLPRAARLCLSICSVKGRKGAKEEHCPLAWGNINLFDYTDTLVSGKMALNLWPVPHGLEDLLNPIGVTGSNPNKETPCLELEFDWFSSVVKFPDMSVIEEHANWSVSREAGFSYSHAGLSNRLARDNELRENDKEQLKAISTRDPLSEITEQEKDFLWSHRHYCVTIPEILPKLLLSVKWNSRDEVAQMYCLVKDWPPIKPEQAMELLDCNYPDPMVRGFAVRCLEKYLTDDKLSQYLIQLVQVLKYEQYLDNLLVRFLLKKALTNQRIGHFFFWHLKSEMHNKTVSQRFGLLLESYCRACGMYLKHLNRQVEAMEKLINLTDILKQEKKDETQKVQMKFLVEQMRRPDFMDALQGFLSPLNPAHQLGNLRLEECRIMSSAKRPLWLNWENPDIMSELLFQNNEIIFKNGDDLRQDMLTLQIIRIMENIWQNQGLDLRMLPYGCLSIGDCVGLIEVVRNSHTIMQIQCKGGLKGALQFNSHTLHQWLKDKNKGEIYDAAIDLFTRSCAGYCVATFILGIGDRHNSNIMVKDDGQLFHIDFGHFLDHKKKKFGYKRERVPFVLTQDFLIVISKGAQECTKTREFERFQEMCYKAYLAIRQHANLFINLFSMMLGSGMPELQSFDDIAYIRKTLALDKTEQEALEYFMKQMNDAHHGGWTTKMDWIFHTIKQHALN
PI3Kalpha, sequence (P27986 whole entry partner): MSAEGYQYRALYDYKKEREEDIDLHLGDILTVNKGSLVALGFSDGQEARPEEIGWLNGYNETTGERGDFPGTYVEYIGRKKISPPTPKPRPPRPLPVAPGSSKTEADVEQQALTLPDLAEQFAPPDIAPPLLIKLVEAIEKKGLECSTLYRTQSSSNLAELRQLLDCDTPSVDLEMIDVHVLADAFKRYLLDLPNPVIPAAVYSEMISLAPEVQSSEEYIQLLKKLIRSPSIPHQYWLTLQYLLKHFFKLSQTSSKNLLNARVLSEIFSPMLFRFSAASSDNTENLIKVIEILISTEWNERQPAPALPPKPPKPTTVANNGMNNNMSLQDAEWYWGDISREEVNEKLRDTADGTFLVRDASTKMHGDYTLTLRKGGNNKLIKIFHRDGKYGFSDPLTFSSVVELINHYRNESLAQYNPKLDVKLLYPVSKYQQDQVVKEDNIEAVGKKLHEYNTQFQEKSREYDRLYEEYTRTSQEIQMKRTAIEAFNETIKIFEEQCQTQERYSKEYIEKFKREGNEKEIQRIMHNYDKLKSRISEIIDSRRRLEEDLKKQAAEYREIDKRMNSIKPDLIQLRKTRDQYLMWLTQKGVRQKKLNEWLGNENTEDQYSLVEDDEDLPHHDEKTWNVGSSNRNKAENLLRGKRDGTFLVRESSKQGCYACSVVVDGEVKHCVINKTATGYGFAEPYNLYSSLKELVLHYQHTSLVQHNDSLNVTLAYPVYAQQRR
Protocol: PI3Kn activity was measured as the percent of ATP consumed following the kinase reaction using luciferase-luciferin-coupled chemiluminescence. Reactions were conducted in 384-well white, medium binding microtiter plates (Greiner). Kinase reactions were initiated by combining test compounds, ATP, substrate (PIP2), and kinase in a 20 μL volume in a buffer solution. The standard PI3Kalpha assay buffer was composed 50 mM Tris, pH 7.5, 1 mM EGTA, 10 mM MgCl2, 1 mM DTT and 0.03% CHAPS. The standard assay concentrations for enzyme, ATP, and substrate were 3 nM, 1 μM, and 10 μM, respectively. The reaction mixture was incubated at ambient temperature for approximately 2 h. Following the kinase reaction, a 10 μL aliquot of luciferase-luciferin mix (Promega Kinase-Glo) was added and the chemiluminescence signal measured using a Victor2 or EnVision (Perkin Elmer). Total ATP consumption was limited to 40-60% and IC50 values of control compounds correlate well with literature references. Substituting PI3Kα with PI3Krβ, PI3Kγ, or PI3Kδ, the inhibitory activity of the compounds for the other isoforms of PI3K were measured. For the PI3Kβ and PI3Kδ assays, enzyme concentrations were 10 nM and 4 nM, respectively. For the PI3Kγ assay, enzyme concentration was 40 nM, the incubation time was 1 h, and the concentration of MgCl2 in the assay buffer was 5 mM.

Row | SMILES | IC50 (mTORC1) [nM] | IC50 (PI3Kalpha) [nM]
1 | Cc1c(Cl)nc(N)nc1N1CCOc2ccc(-c3cnc4sc(N)nc4c3)cc2C1 [Compound 31, 6-[4-(2-amino-6-chloro-5-methylpyrimidin-4-yl)-2,3,4,5-tetrahydro-1,4-benzoxazepin-7-yl][1,3]thiazolo[5,4-b]pyridin-2-amine] | 100 to 500 | ≤ 100
2 | CCCc1c(C)nc(N)nc1N1CCOc2ccc(-c3cnc4sc(N)nc4c3)cc2C1 [Compound 32] | ≤ 100 | ≤ 100
3 | CCCc1cnc(N)nc1N1CCOc2ccc(-c3cnc4sc(N)nc4c3)cc2C1 [Compound 33, 6-[4-(2-amino-5-propylpyrimidin-4-yl)-2,3,4,5-tetrahydro-1,4-benzoxazepin-7-yl][1,3]thiazolo[5,4-b]pyridin-2-amine] | ≤ 100 | ≤ 100
4 | C=Cc1cnc(N)nc1N1CCOc2ccc(-c3cnc4sc(N)nc4c3)cc2C1 [Compound 34, 6-[4-(2-amino-5-ethenylpyrimidin-4-yl)-2,3,4,5-tetrahydro-1,4-benzoxazepin-7-yl][1,3]thiazolo[5,4-b]pyridin-2-amine] | ≤ 100 | ≤ 100
5 | Cc1cnc(N)nc1N1CCOc2ccc(-c3cnc4sc(N)nc4c3)cc2C1 [Compound 35, 6-[4-(2-amino-5-methylpyrimidin-4-yl)-2,3,4,5-tetrahydro-1,4-benzoxazepin-7-yl][1,3]thiazolo[5,4-b]pyridin-2-amine] | 100 to 500 | ≤ 100
6 | Cc1nc(CN(C)C)nc(N2CCOc3ccc(-c4cnc5sc(N)nc5c4)cc3C2)c1CC(C)C [Compound 36, 6-(4-{2-[(dimethylamino)methyl]-6-methyl-5-(2-methylpropyl)pyrimidin-4-yl}-2,3,4,5-tetrahydro-1,4-benzoxazepin-7-yl)[1,3]thiazolo[5,4-b]pyridin-2-amine] | ≤ 100 | 100 to 500

Next, values leading:

Row | IC50 (mTORC1) [nM] | IC50 (PI3Kalpha) [nM] | SMILES
7 | ≤ 100 | ≤ 100 | Cc1nc(CN(C)C)nc(N2CCOc3ccc(-c4cnc5sc(N)nc5c4)cc3C2)c1-c1ccccc1 [Compound 37, 6-(4-{2-[(dimethylamino)methyl]-6-methyl-5-phenylpyrimidin-4-yl}-2,3,4,5-tetrahydro-1,4-benzoxazepin-7-yl)[1,3]thiazolo[5,4-b]pyridin-2-amine]
8 | ≤ 100 | ≤ 100 | Cc1nc(CN(C)C)nc(N2CCOc3ccc(-c4cnc5sc(N)nc5c4)cc3C2)c1CCCF [Compound 38, 6-(4-{2-[(dimethylamino)methyl]-5-(3-fluoropropyl)-6-methylpyrimidin-4-yl}-2,3,4,5-telrahydro-1,4-benzoxazepin-7-yl)[1,3]thiazolo[5,4-b]pyridin-2-amine]
9 | ≤ 100 | ≤ 100 | Cc1nc(N)nc(N2CCOc3ccc(-c4cnc5sc(N)nc5c4)cc3C2)c1-c1ccccc1 [Compound 39, 6-[4-(2-amino-6-methyl-5-phenylpyrimidin-4-yl)-2,3,4,5-tetrahydro-1,4-benzoxazepin-7-yl][1,3]thiazolo[5,4-b]pyridin-2-amine]
10 | ≤ 100 | ≤ 100 | Cc1nc(N)nc(N2CCOc3ccc(-c4cnc5sc(N)nc5c4)cc3C2)c1-c1cccc(F)c1 [Compound 40, 6-{4-[2-amino-5-(3-fluorophenyl)-6-methylpyrimidin-4-yl]-2,3,4,5-tetrahydro-1,4-benzoxazepin-7-yl}[1,3]thiazolo[5,4-b]pyridin-2-amine]
11 | 500 to 2500 | 100 to 500 | Cc1nc(N)nc(N2CCOc3ccc(-c4cnc5sc(N)nc5c4)cc3C2)c1C1CC1 [Compound 41, 6-[4-(2-amino-5-cyclopropyl-6-methylpyrimidin-4-yl)-2,3,4,5-tetrahydro-1,4-benzoxazepin-7-yl][1,3]thiazolo[5,4-b]pyridin-2-amine]
12 | 100 to 500 | ≤ 100 | Cc1nc(N)nc(N2CCOc3ccc(-c4cnc5sc(N)nc5c4)cc3C2)c1C=O [Compound 42, 2-amino-4-[7-(2-amino[1,3]thiazolo[5,4-b]pyridin-6-yl)-2,3-dihydro-1,4-bcnzoxazepin-4(5H)-yl]-6-methylpyrimidine-5-carbaldehyde]
